Laboratory results published in PubChem BioAssay AID493240 (Broad Institute, 2011).

Test system: SK-MEL-5 viability, ATP luminescence (CellTiter-Glo), 24 h
Assay: SK-MEL-5 parental cell viability loss, dose response, orthogonal assay for MITF inhibitor project, CellTiter-Glo, cherry-picked, set 3 (AID 493240)

Compound `CCC(=O)N1CCN(c2ccc(NC(=O)c3ccc([N+](=O)[O-])o3)cc2Cl)CC1` has an AC50 of 24.8 µM.

`C=CCNC1=C(Cl)C(=O)c2ccccc2C1=O` showed an AC50 of 7.68 µM.

In the case of `C=CCn1c(C)cc(C2=NNC(=NCC)SC2)c1C`, the AC50 is reported as 12.9 µM.

With `CCN(CC)CCNC(=O)C1CCN(S(=O)(=O)c2c(C)noc2/C=C/c2ccccc2F)CC1` the AC50 was 28.8 µM.

With `O=C(N/N=C\c1ccc([N+](=O)[O-])s1)c1cncc(Br)c1` the AC50 was 21 µM.

Work on `O=c1c2ccccc2nc(/C=C/c2ccc([N+](=O)[O-])o2)n1-c1ccc(O)cc1` yielded an AC50 of 14.9 µM.

`COc1cc(NC(=O)c2ccc([N+](=O)[O-])o2)ccc1NC(=O)c1cccs1` was tested, and the AC50 was 20.1 µM.

Compound `CCOc1cc(/C=N/N=C(N)N)ccc1OCc1ccc(Cl)cc1` has an AC50 of 19.2 µM.

`CC1CCC(C(C)C)C(OC(=O)Cn2c(-c3ccc(Br)cc3)[n+](C)c3ccccc32)C1` (stereo not given) gave an AC50 of 15.2 µM.

`Cc1ccc2c(c1)Oc1ccc(NC(=O)CCl)cc1C(=O)N2` was tested, and the AC50 was 9.65 µM.

`Cc1ccc(NC(=O)c2ccc([N+](=O)[O-])s2)cc1S(=O)(=O)N1CCOCC1` gave an AC50 of 16.2 µM.

With `C#CCCc1ccccc1/C=[N+](/C)[O-]` the AC50 was 20.5 µM.

Compound `CC(=O)N(\C=C/C=C/C=C1\Sc2ccccc2C1=O)c1ccccc1` has an AC50 of 21.2 µM.

`c1ccc2cc3c(NCCN4CCOCC4)ccnc3cc2c1` gave an AC50 of 3.68 µM.

For `O=c1c(Cl)c2oc3ccccc3nc-2c2ccccc12`, the AC50 was 5.67 µM.

For `CC1CCC(C(C)C)C(OC(=O)Cn2c(-c3ccc(Cl)cc3)[n+](C)c3ccccc32)C1` (stereo not given), the AC50 was 10.4 µM.

In the case of `COC(=O)c1c(NC(=O)c2nc3ccccc3s2)sc2c1CC(C)(C)NC2(C)C`, the AC50 is reported as 22.1 µM.

Work on `O=[N+]([O-])c1ccc(/C=N/n2cnc3ccccc32)s1` yielded an AC50 of 17.9 µM.

`COC(=O)C1=C(C)N(Cc2ccccc2)C(=NCCc2cccnc2)N[C@H]1c1ccc(Br)cc1` gave an AC50 of 19.2 µM.

`Cn1c(SCC(=O)N/N=C/c2ccc([N+](=O)[O-])s2)nnc1-c1ccccc1` was tested, and the AC50 was 21.5 µM.

In the case of `Cc1ccc2sc(N(CCCN(C)C)C(=O)c3ccc(S(=O)(=O)N(C)C4CCCCC4)cc3)nc2c1C`, the AC50 is reported as 26.7 µM.

For `CCN1CCN(CCCNC(=O)c2ccc3c(c2)NC(=O)/C(=C\c2cccc(C)c2)S3)CC1`, the AC50 was 20.3 µM.

With `COCCCn1[nH]c2c3c(ccc2c1=O)C(=O)c1ccccc1C3=O` the AC50 was 16.5 µM.

Work on `CC1CCN(CC(CS(=O)(=O)c2ccc([N+](=O)[O-])cc2)N2CCC(C)CC2)CC1` (stereo not given) yielded an AC50 of 27.3 µM.

`O=[N+]([O-])c1ccc(S(=O)(=O)CC(CN2CCCCC2)N2CCCCC2)cc1` (stereo not given) was tested, and the AC50 was 29.8 µM.

In the case of `CC(C)(C)c1ccc(OCCn2ccccc2=O)cc1`, the AC50 is reported as 28.7 µM.

`N=c1n(CC(=O)c2ccc(Br)cc2)c2ccccc2n1Cc1ccccc1` showed an AC50 of 18.1 µM.

In the case of `O=C1C(Nc2ccccc2)=C(N2CCCCC2)C(=O)c2ccccc21`, the AC50 is reported as 12.7 µM.

With `O=C1C(Cl)=C(N2CCN(c3ccccc3[N+](=O)[O-])CC2)C(=O)c2ccccc21` the AC50 was 10.8 µM.

With `Cc1ccc(Cn2c(=N)n(CC(=O)c3ccc([N+](=O)[O-])cc3)c3ccccc32)cc1` the AC50 was 21.9 µM.

`CCN(CC)CCNC(=O)c1ccc(NC(=O)c2cccc(S(=O)(=O)N3c4ccccc4CC3C)c2)cc1` (stereo not given) gave an AC50 of 22.5 µM.

`CC(C)(c1ccccc1)c1ccc(OCC(O)CNC2CCN(Cc3ccccc3)CC2)cc1` (stereo not given) showed an AC50 of 19.9 µM.

For `COc1cccc(/C=N/Nc2ccc(C(=O)O)cc2)c1O`, the AC50 was 19.9 µM.

With `COC1=C(c2ccccc2)C(=O)c2ccccc2C1=O` the AC50 was 9.91 µM.

Work on `Nc1c2c(=O)oc(-c3ccccc3)cc2nn1-c1ccccc1` yielded an AC50 of 2.49 µM.

`Cc1ccc2nc(N(CCCN(C)C)C(=O)c3ccc4c(c3)CCCC4)sc2c1` was tested, and the AC50 was 17.7 µM.

Work on `Nc1c(N(CCC2=CCCCC2)C(=O)COc2ccc(F)cc2)c(=O)[nH]c(=O)n1Cc1ccccc1` yielded an AC50 of 10.9 µM.

Compound `Cn1cccc1C(=O)NC(=O)COC(=O)c1ccc(S(C)(=O)=O)c([N+](=O)[O-])c1` has an AC50 of 31.4 µM.

`CS(=O)(=O)c1nc(-c2ccc(F)cc2)cc(C(F)(F)F)n1` was tested, and the AC50 was 20.3 µM.

`COc1ccc(C(=O)/C=C/C(=O)N(CC(=O)NC2CCCCC2)Cc2ccccc2)c(O)c1` showed an AC50 of 12.9 µM.

For `O=C1Nc2ccc(Br)cc2/C1=C/C(=O)c1ccc2c(c1)OCO2`, the AC50 was 32.6 µM.

In the case of `CCOC(=O)CSC1=NC(=O)/C(=C/c2ccc(OC)cc2)S1`, the AC50 is reported as 28.5 µM.

`COc1ccc(-n2cc(-c3ccc(C)cc3)[n+]3c2SCC3)cc1` gave an AC50 of 19.9 µM.

`COc1cccc2sc(N(CCCN(C)C)C(=O)C(c3ccccc3)c3ccccc3)nc12` was tested, and the AC50 was 18.3 µM.

`O=C(CCl)Nc1ccc(Sc2ccc(NC(=O)CCl)cc2)cc1` showed an AC50 of 23.6 µM.

Work on `Cc1ccc(C(=O)N/N=C/c2ccc([N+](=O)[O-])s2)cc1` yielded an AC50 of 26.7 µM.

Compound `CC(C)(C)c1ccc(-c2cn(-c3ccc(Br)cc3)c3[n+]2CCCS3)cc1` has an AC50 of 11.4 µM.

`CCN(CC)S(=O)(=O)c1ccc(NC(=O)c2cccnc2Cl)c(NC(=O)c2cccnc2Cl)c1` showed an AC50 of 12.3 µM.

Compound `Cc1ccc2[nH]c(=O)c(CN(CCCN(C)C)C(=O)Nc3cccc(Cl)c3)cc2c1` has an AC50 of 24.3 µM.

For `CCOC(=O)c1c(NC(C)=O)sc2c(OCC(O)CNC(C)(C)C)c(Br)ccc12` (stereo not given), the AC50 was 19.1 µM.

`COc1ccc(-c2cc3c(nn2)-c2ccccc2C3=O)cc1` showed an AC50 of 15 µM.

Work on `Oc1c(CN2CCCCC2)cc(COCc2ccccc2)c2cccnc12` yielded an AC50 of 16.9 µM.

With `Cc1cc2oc3ccc(NCCC4CCCN4C)cc3c(=O)c2cc1C` (stereo not given) the AC50 was 17.6 µM.

`Cc1ccc(C(=O)N/C(=C\c2ccc(-c3ccc(Br)cc3)o2)C(=O)NCCCN(C)C)cc1` gave an AC50 of 17.1 µM.

In the case of `COc1cc(/C=N/N=C(N)N)ccc1OCc1ccc(Cl)cc1`, the AC50 is reported as 18.8 µM.
